From patent US20100063085A1, “METHOD OF TREATING LEARNING IMPAIRMENT IN DOWN'S SYNDROME SUBJECTS” (University Court of The University of Dundee, priority 2008, published 2010)
Where two headings read alike, the source gives them in different places.

How the values were obtained:
Experiment in all cases: biochemical
[1] = target: CAMK-1 (Homo sapiens, UniProt Q14012); settings: read-out: CAMK-1 activity as percentage of control without inhibitor
Experimental: (§1) All assays (25.5 μl) were carried out at room temperature (21° C.) and were linear with respect to time and enzyme concentrations under the conditions used. Assays were performed for 30 minutes except assays for LCK and PKB which were performed for 15 minutes using Multidrop Micro reagent dispensers (Thermo Electron Corporation, Waltham, Mass. 02454, USA) in a 96-well format. The concentration of […] [γ-^33P] ATP (800 cpm/pmol) in the assays was one of three concentrations (5, 20 or 50 μM) in order to be at or below Km for ATP for the enzyme. Assays were initiated with MgATP and stopped by addition of 5 μl of 0.5M orthophosphoric acid. Assays were then harvested onto P81 filterplates using a unifilter harvester (PerkinElmer, Boston, Mass. 02118, USA), with a wash buffer of 50 mM orthophosphoric acid. Filterplates were then air dried overnight. 10 μl of Microscint O was added per well prior to counting for radioactivity.
(§2) The following kinases were assayed against the substrates indicated. Aurora B was assayed against the substrate peptide […] (300 μM), ERK8 and MST-2 were both assayed against MBP (0.33 mg/ml). IKKβ was assayed against the substrate peptide […] (300 μM), JNK3 was assayed against 3 μM ATF2[19-96]. MAPKAP-K3 and PKD1 were both assayed against […] (30 μM), MARK3 was assayed against CHKtide ([…]) substrate peptide (300 μM). MNK1 and MNK2 were both assayed against eIF4E protein (0.5 mg/ml). NEK7 was assayed against […] (300 μM), PIM2 was assayed against […] (300 μM), ΔPH PKBβ-S474D was assayed against Crosstide (30 μM), PLK1 was assayed against […] (300 μM). PRK2 was assayed against Long S6 peptide, […] (30 μM), RSK2 was assayed against […] (30 μM), SRC was assayed against cdc2 peptide, […], (300 μM) and SRPK1 was assayed against peptide […] (300 μM). All enzymes were diluted in 50 mM Tris/HCl pH 7.5, 0.1 mM EGTA, 1 mg/ml BSA, 0.1% β-mercaptoethanol buffer and assayed in an incubation containing 50 mM Tris/HCl pH7.5, 0.1 mM EGTA, 0.1% β-mercaptoethanol, CAMK-1 (5-20 mU) diluted in 50 mM Tris/HCl pH 7.5, 0.1 mM EGTA, 1 mg/ml BSA, 0.1% β-mercaptoethanol is assayed against substrate peptide […] in an incubation containing 50 mM Tris/HCl pH 7.5, 0.1 mM EGTA, 0.5 mM CaCl2, 0.3 μM calmodulin, 0.1% β-mereaptoethanol, 300 μM substrate peptide, 10 mM magnesium acetate and 0.05 mM [^33P-γ-ATP] (500-1000 cpm/pmole). EF2K (5-20 mU) diluted in 50 mM Hepes pH 6.6, 0.1% β-mercaptoethanol, 1 mg/ml BSA is assayed against a substrate peptide […] in an incubation containing 50 mM Hepes pH 6.6, 0.2 mM CaCl2, 0.3 μM Calmodulin, 0.05% b-mercaptoethanol, 300 μM substrate peptide, 10 mM magnesium acetate and 0.05 mM [^33P-γ-ATP] (500-1000 cpm/pmole).

[2] = target: T1, ERK8 (Homo sapiens, UniProt Q8TD08); settings: read-out: ERK8 activity as percentage of control without inhibitor
T1 sequence (Q8TD08 1-544): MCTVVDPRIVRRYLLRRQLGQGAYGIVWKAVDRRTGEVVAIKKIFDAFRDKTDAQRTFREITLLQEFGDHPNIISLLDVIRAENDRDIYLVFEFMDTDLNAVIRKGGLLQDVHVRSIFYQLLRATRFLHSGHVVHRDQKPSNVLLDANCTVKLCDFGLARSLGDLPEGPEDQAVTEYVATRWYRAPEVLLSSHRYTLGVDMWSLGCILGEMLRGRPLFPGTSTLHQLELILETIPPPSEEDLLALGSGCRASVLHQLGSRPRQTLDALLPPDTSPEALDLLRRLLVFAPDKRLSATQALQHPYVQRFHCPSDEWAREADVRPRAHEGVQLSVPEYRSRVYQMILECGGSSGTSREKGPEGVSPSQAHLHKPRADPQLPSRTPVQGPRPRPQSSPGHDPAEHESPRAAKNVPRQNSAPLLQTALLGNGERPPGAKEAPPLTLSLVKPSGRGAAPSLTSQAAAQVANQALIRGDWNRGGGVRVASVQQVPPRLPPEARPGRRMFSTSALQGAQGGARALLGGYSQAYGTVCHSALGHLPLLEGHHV
Experimental: as §1, §2

[3] = target: MNK2 (Homo sapiens, UniProt Q9HBH9); settings: read-out: MNK2 activity as percentage of control without inhibitor
Chain of MNK2 (Q9HBH9 whole entry, species assumed): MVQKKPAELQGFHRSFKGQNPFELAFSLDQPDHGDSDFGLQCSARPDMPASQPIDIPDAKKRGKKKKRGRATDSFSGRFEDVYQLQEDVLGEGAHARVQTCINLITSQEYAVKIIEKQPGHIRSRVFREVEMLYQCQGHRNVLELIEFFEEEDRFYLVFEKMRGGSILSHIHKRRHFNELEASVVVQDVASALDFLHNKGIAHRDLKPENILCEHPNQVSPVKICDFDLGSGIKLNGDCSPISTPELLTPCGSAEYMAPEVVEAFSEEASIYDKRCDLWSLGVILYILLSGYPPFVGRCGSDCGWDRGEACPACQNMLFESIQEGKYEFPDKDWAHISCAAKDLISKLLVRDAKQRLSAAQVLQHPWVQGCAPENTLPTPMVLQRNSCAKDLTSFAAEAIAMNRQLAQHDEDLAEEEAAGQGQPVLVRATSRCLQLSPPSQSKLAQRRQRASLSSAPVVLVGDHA
Experimental: as §1, §2

[4] = target: T2, MST2 (Homo sapiens, UniProt Q13188); settings: read-out: MST2 activity as percentage of control without inhibitor
T2 sequence (Q13188 1-491): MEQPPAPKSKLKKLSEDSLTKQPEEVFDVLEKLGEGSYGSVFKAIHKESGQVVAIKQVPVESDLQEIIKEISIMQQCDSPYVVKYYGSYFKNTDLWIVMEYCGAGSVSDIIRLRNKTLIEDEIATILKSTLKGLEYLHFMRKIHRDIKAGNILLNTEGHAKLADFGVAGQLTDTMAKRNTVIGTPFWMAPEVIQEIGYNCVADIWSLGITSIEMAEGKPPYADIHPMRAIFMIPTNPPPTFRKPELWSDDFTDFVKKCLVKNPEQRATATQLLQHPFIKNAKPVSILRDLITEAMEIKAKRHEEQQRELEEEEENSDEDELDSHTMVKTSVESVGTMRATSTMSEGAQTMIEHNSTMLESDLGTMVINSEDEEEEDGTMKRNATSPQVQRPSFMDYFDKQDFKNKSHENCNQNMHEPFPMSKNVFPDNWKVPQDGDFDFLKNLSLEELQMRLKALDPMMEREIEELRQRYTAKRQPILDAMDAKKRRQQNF
Experimental: as §1, §2

[5] = target: NEK7 (Homo sapiens, UniProt Q8TDX7); settings: read-out: NEK7 activity as percentage of control without inhibitor
Chain of NEK7 (Q8TDX7 whole entry, species assumed): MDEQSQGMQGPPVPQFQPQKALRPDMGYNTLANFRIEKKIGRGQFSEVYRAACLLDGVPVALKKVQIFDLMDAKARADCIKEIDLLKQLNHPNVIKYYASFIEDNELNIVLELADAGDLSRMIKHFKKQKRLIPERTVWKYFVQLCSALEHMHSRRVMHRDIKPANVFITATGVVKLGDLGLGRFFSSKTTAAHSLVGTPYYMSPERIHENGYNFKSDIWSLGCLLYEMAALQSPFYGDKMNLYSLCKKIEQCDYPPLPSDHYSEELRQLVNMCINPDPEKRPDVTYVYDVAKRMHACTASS
Experimental: as §1, §2

[6] = target: SRPK1 (Homo sapiens, UniProt Q96SB4); settings: read-out: SRPK1 activity as percentage of control without inhibitor
Chain of SRPK1 (Q96SB4 whole entry, species assumed): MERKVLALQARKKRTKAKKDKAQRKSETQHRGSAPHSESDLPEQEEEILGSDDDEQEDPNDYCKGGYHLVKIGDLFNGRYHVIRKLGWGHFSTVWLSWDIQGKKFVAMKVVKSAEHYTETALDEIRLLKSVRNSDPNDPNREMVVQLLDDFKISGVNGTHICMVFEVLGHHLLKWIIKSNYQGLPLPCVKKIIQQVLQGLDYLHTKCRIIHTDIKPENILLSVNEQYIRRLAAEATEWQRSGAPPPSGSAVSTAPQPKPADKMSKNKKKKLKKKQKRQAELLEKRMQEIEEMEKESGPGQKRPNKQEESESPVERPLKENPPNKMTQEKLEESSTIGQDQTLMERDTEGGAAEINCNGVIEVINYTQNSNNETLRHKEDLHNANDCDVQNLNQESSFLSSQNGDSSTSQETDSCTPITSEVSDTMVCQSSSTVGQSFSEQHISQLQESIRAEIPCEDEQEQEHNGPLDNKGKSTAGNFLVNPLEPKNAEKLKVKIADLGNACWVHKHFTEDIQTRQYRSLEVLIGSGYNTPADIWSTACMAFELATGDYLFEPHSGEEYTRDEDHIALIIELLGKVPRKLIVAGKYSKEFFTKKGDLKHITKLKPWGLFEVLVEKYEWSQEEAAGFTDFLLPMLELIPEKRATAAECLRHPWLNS
Experimental: as §1, §2

Structure (SMILES): COc1ccc2c3c([nH]c2c1)C(C)=NCC3 [Harmaline]
- remaining activity at 1 µM ([1]; inhibitor 1 μM): 99%
- remaining activity at 10 µM ([1]; inhibitor 10 μM): 110%
- remaining activity at 1 µM ([2]; inhibitor 1 μM): 58%
- remaining activity at 10 µM ([2]; inhibitor 10 μM): 21%
- remaining activity at 1 µM ([3]; inhibitor 1 μM): 88%
- remaining activity at 10 µM ([3]; inhibitor 10 μM): 77%
- remaining activity at 1 µM ([4]; inhibitor 1 μM): 98%
- remaining activity at 10 µM ([4]; inhibitor 10 μM): 105%
- remaining activity at 1 µM ([5]; inhibitor 1 μM): 95%
- remaining activity at 10 µM ([5]; inhibitor 10 μM): 115%
- remaining activity at 1 µM ([6]; inhibitor 1 μM): 104%
- remaining activity at 10 µM ([6]; inhibitor 10 μM): 97%

Structure (SMILES): CC1=NCCc2c1[nH]c1cc(O)ccc21 [Harmalol]
- remaining activity at 1 µM ([1]; inhibitor 1 μM): 93%
- remaining activity at 10 µM ([1]; inhibitor 10 μM): 60%
- remaining activity at 1 µM ([2]; inhibitor 1 μM): 41%
- remaining activity at 10 µM ([2]; inhibitor 10 μM): 21%
- remaining activity at 1 µM ([3]; inhibitor 1 μM): 97%
- remaining activity at 10 µM ([3]; inhibitor 10 μM): 71%
- remaining activity at 1 µM ([4]; inhibitor 1 μM): 85%
- remaining activity at 10 µM ([4]; inhibitor 10 μM): 74%
- remaining activity at 1 µM ([5]; inhibitor 1 μM): 83%
- remaining activity at 10 µM ([5]; inhibitor 10 μM): 56%
- remaining activity at 1 µM ([6]; inhibitor 1 μM): 88%
- remaining activity at 10 µM ([6]; inhibitor 10 μM): 72%

Structure (SMILES): COc1ccc2c(c1)[nH]c1c(C)nccc12 [Harmine]
- remaining activity at 1 µM [1]: 107%
- remaining activity at 10 µM [1]: 94%
- remaining activity at 1 µM [2]: 25%
- remaining activity at 10 µM [2]: 19%
- remaining activity at 1 µM [3]: 84%
- remaining activity at 10 µM [3]: 98%
- remaining activity at 1 µM [4]: 91%
- remaining activity at 10 µM [4]: 81%
- remaining activity at 1 µM [5]: 90%
- remaining activity at 10 µM [5]: 92%
- remaining activity at 1 µM [6]: 86%
- remaining activity at 10 µM [6]: 83%
